For data set [1], the target named is T1, NAD-dependent protein deacetylase sirtuin-1 (Homo sapiens, UniProt Q96EB6).
T1 sequence (Q96EB6 whole entry): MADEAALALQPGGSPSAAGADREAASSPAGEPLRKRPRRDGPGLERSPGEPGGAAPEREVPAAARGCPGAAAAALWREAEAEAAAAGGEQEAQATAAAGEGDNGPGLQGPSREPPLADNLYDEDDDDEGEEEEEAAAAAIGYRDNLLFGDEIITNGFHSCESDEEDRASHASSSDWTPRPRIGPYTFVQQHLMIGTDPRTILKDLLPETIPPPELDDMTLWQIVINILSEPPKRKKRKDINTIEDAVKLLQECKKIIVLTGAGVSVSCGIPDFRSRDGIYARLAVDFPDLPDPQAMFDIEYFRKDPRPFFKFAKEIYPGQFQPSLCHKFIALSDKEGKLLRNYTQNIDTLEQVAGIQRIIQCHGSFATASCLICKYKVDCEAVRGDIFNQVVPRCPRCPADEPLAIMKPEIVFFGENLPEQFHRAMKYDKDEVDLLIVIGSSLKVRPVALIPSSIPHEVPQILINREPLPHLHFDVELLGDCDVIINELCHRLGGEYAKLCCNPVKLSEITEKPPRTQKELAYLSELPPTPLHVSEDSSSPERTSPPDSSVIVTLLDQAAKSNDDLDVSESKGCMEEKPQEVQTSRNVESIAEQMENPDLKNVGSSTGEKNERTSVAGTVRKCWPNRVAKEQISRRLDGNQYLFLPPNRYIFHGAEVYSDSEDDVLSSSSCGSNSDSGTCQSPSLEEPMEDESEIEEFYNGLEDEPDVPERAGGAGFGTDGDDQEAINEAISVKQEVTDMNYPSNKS
Kind of data set: Inhibition of human SIRT1 using peptide substrate assessed as deacetylase activity.

Data set [2] deals with T2, NAD-dependent protein deacetylase sirtuin-1 (Homo sapiens) (UniProt Q96EB6).
T2 sequence (whole entry): T1 sequence (Q96EB6 whole entry)
The conditions noted are these: HCT-116, 10 uM.
Description: Inhibition of SIRT1 in human HCT116 cells assessed as increase in p53 acetylation level at 10 uM by Western blot analysis

Data set [3] addresses T2, NAD-dependent protein deacetylase sirtuin-1 (Homo sapiens). Kind of data set: Inhibition of SIRT1 in human HCT116 cells assessed as increase in p53 acetylation level at 500 uM by Western blot analysis. The conditions noted are these: HCT-116. The class given is cell-based. In general terms: Immunoblotting shows a protein as a band on a membrane.
The target in data set [4] is Histone deacetylase 1 (Homo sapiens) (UniProt Q13547). Kind of data set: Activity of HDAC1 in human HeLa cells nuclear extract assessed as compound deacetylation measured up to 2 hrs by time course assay. The class given is cell-free.
For data set [5], the target named is T3, NAD-dependent protein deacetylase sirtuin-2 (Homo sapiens) (UniProt Q8IXJ6).
T3 sequence (whole entry): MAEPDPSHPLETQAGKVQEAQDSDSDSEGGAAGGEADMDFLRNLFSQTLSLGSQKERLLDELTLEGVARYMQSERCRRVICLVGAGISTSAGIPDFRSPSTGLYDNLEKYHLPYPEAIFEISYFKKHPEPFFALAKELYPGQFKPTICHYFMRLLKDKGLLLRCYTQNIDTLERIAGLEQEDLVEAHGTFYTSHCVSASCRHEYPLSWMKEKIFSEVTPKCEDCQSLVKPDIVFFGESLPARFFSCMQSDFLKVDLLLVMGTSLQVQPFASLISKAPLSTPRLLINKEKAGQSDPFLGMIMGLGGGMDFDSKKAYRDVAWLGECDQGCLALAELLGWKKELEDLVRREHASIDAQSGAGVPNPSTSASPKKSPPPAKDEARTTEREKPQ
Kind of data set: Activity of GST-tagged SIRT2 (unknown origin) assessed as compound deacetylation measured up to 4 hrs by sirutin time course assay.

The target in data set [6] is T4, NAD-dependent protein deacetylase sirtuin-2 (Homo sapiens, UniProt Q8IXJ6).
T4 sequence (Q8IXJ6 whole entry): T3 sequence (whole entry)
Nature of the data set: Inhibition of GST-tagged SIRT2 (unknown origin) by HPLC assay.

Data set [7] addresses T5, NAD-dependent protein deacetylase sirtuin-3, mitochondrial (Homo sapiens) (UniProt Q9NTG7).
T5 sequence (whole entry): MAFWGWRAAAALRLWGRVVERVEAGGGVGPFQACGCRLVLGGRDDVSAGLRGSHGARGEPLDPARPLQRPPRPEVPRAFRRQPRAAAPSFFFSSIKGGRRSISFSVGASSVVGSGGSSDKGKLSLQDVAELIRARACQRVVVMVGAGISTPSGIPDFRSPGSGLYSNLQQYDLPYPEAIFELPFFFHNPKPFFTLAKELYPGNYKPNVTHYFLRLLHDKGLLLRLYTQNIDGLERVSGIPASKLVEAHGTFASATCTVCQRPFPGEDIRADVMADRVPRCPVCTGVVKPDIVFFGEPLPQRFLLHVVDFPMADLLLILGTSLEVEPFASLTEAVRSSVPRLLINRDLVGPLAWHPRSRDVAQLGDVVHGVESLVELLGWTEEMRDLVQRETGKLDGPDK
Kind of data set: Activity of GST-tagged SIRT3 (unknown origin) assessed as compound deacetylation measured up to 4 hrs by sirutin time course assay.

Data set [8] addresses T6, Histone deacetylase 8 (Homo sapiens) (UniProt Q9BY41).
T6 sequence (whole entry): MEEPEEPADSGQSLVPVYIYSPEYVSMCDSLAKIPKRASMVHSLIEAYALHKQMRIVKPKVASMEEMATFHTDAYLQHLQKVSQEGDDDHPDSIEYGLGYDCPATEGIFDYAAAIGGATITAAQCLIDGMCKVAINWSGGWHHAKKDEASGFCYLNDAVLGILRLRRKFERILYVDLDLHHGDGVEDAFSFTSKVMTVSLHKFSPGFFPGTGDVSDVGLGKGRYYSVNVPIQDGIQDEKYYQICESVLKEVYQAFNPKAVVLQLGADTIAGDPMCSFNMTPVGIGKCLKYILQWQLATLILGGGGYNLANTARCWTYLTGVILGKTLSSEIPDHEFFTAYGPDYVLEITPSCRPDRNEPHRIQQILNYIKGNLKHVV
Kind of data set: Activity of recombinant HDAC8 (unknown origin) assessed as compound deacetylation measured up to 4 hrs by time course assay.

Data set [9] has as its target T2, NAD-dependent protein deacetylase sirtuin-1 (Homo sapiens). Kind of data set: Activity of GST-tagged SIRT1 (unknown origin) assessed as compound deacetylation measured up to 4 hrs by sirutin time course assay.
The nature of data set [10]: Proteolytic stability of the compound assessed as degradation after 30 mins by HPLC in presence of pronase. It counts as ADME. The conditions noted are these: 0.5 h.
Data set [11] has as its target Histone deacetylase 2 (Homo sapiens) (UniProt Q92769). Nature of the data set: Activity of HDAC2 in human HeLa cells nuclear extract assessed as compound deacetylation measured up to 2 hrs by time course assay. It counts as cell-free.
The target in data set [12] is T2, NAD-dependent protein deacetylase sirtuin-1 (Homo sapiens). Nature of the data set: Inhibition of SIRT1 in human HCT116 cells assessed as increase in p53 acetylation level at 5 uM by Western blot analysis. It counts as cell-based. The note with it: HCT-116.
Data set [13] has as its target T7, NAD-dependent protein deacetylase sirtuin-3, mitochondrial (Homo sapiens, UniProt Q9NTG7).
T7 sequence (Q9NTG7 whole entry): T5 sequence (whole entry)
Kind of data set: Inhibition of GST-tagged SIRT3 (unknown origin) by HPLC assay.

Data set [14] concerns the target T2, NAD-dependent protein deacetylase sirtuin-1 (Homo sapiens). Kind of data set: Inhibition of SIRT1 in human HCT116 cells assessed as increase in p53 acetylation level by Western blot analysis. It counts as cell-based. The note with it: HCT-116.
For data set [15] the target is unchanged. Nature of the data set: Inhibition of SIRT1 in human HCT116 cells assessed as increase in p53 acetylation level at 3 uM by Western blot analysis. The conditions noted are these: HCT-116. The class given is cell-based.
In data set [16] the target is T3, NAD-dependent protein deacetylase sirtuin-2 (Homo sapiens). Nature of the data set: Ratio of AGK2 to compound in GST-tagged SIRT2 (unknown origin).

Each structure is given as a SMILES string. Active and inactive are the calls of the source. The rule behind the calls is not given here. Where a SMILES comes first, the peptide text is derived from it.

The record followed here is ChEMBL document CHEMBL3217699, “Discovery of potent, proteolytically stable, and cell permeable human sirtuin peptidomimetic inhibitors containing N-thioacetyl-lysine” (Medchemcomm, 2010).

Sequence of Histone deacetylase 1 (Homo sapiens) (Q13547 whole entry): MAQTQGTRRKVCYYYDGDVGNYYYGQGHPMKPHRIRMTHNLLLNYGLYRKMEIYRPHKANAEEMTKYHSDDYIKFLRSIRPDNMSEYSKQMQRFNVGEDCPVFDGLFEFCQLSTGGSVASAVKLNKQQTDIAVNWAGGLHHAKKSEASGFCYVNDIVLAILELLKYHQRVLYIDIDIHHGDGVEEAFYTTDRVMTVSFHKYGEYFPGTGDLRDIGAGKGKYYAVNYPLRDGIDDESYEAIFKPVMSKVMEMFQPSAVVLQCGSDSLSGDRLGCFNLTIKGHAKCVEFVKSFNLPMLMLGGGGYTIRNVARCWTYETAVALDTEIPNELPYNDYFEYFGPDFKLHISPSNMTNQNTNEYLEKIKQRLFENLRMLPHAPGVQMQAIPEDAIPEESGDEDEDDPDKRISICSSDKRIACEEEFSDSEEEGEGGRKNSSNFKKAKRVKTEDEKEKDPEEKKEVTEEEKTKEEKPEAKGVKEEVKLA
Sequence of Histone deacetylase 2 (Homo sapiens) (Q92769 whole entry): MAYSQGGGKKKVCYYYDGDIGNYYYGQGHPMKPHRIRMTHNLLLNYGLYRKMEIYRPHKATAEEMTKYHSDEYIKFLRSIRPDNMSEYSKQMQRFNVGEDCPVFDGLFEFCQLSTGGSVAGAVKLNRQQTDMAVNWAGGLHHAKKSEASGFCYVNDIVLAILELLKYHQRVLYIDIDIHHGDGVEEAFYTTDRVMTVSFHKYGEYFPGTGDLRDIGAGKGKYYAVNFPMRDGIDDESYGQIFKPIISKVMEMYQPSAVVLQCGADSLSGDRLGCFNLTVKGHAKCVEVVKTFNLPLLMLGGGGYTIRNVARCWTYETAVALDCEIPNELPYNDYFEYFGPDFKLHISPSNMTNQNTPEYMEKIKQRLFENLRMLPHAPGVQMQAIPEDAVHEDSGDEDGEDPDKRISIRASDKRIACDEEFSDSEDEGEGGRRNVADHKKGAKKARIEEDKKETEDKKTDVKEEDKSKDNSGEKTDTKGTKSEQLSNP

For orientation: IC50 means the concentration at which inhibition is half-maximal. As to `CSCC[C@H](NC(=O)[C@H](Cc1ccc(O)cc1)NC(=O)[C@H](CCCCNC(C)=S)NC(=O)[C@H](CCCCN)NC(=O)[C@H](Cc1c[nH]cn1)NC(C)=O)C(N)=O` (HELM PEPTIDE1{[ac].H.K.[CC(=S)NCCCC[C@H](N[*:1])C(=O)[*:2]].Y.M.[am]}$$$$V2.0), the IC50 in [1] worked out at 3.5 µM.
Regarding `CC(=S)NCCCC[C@H](NC(=O)OCc1ccccc1)C(=O)Nc1ccccc1`, in [1], the IC50 came out at 140 µM. For the same compound, the inhibition result in data set [2] is “inactive”.
For `CSCC[C@H](NC(=O)[C@H](CCCCNC(C)=O)NC(=O)[C@H](CCCCNC(C)=S)NC(=O)[C@H](CCCCN)NC(=O)[C@H](Cc1c[nH]cn1)NC(C)=O)C(N)=O` (HELM PEPTIDE1{[ac].H.K.[CC(=S)NCCCC[C@H](N[*:1])C(=O)[*:2]].K.M.[am]}|PEPTIDE2{[ac]}$PEPTIDE1,PEPTIDE2,5:R3-1:R2$$$V2.0), the half-inhibitory concentration (IC50) in [1] was 0.7 µM.
Turning to `CSCC[C@H](NC(=O)[C@H](CC(C)C)NC(=O)[C@H](CCCC/N=C(/C)S)NC(=O)[C@H](CCCCN)NC(=O)[C@H](Cc1c[nH]cn1)NC(=O)[C@H](CCCN=C(N)N)NC(=O)[C@H](CO)NC(=O)[C@@H](NC(=O)[C@H](CO)NC(=O)[C@H](CCC(N)=O)NC(=O)CNC(=O)[C@H](CCCCN)NC(=O)[C@@H](N)CCCCN)[C@@H](C)O)C(=O)N[C@@H](Cc1ccccc1)C(=O)N[C@@H](CCCCN)C(=O)N[C@H](C(=O)N[C@@H](CCC(=O)O)C(=O)NCC(=O)O)[C@@H](C)O`, the inhibition result in data set [3] is “inactive”.
Consider `CSCC[C@H](NC(=O)[C@H](CC(C)C)NC(=O)[C@H](CCCCNC(C)=S)NC(=O)[C@H](Cc1ccc(O)cc1)NC(=O)[C@H](Cc1c[nH]cn1)NC(C)=O)C(N)=O` (HELM PEPTIDE1{[ac].H.Y.[CC(=S)NCCCC[C@H](N[*:1])C(=O)[*:2]].L.M.[am]}$$$$V2.0), for which the half-inhibitory concentration (IC50) in data set [1] amounted to 4.2 µM.
The same measure, in the same setting: the figure for `CSCC[C@H](NC(=O)[C@H](Cc1ccc(O)cc1)NC(=O)[C@H](CCCCNC(C)=S)NC(=O)[C@H](Cc1ccc(O)cc1)NC(=O)[C@H](Cc1c[nH]cn1)NC(C)=O)C(N)=O` (HELM PEPTIDE1{[ac].H.Y.[CC(=S)NCCCC[C@H](N[*:1])C(=O)[*:2]].Y.M.[am]}$$$$V2.0) is 6 µM.
With `CC(=O)NCCC[C@H](NC(=O)[C@H](CCCCNC(C)=S)NC(=O)[C@H](CCCNC(C)=O)NC(C)=O)C(N)=O`, the result in data set [4], in data set [5], in data set [7], in [8], in [9] and in [11] was inactive. The figures for the IC50 in [6], in data set [1] and in data set [13] were 2.9 µM, 5.9 µM and 4.3 µM, respectively. Also, the Stability entry in [10] was “Stable”. In addition, the inhibition entry in data set [12] is “Active”.
Take `CSCC[C@H](NC(=O)[C@H](CC(C)C)NC(=O)[C@H](CCCCNC(C)=S)NC(=O)[C@H](CCCCNC(C)=O)NC(=O)[C@H](Cc1c[nH]cn1)NC(C)=O)C(N)=O` (HELM PEPTIDE1{[ac].H.K.[CC(=S)NCCCC[C@H](N[*:1])C(=O)[*:2]].L.M.[am]}|PEPTIDE2{[ac]}$PEPTIDE1,PEPTIDE2,3:R3-1:R2$$$V2.0): the IC50 in data set [1] amounted to 4.1 µM.
Take `CSCC[C@H](NC(=O)[C@H](CCCCNC(C)=O)NC(=O)[C@H](CCCCNC(C)=S)NC(=O)[C@H](CCCCNC(C)=O)NC(=O)[C@H](Cc1c[nH]cn1)NC(C)=O)C(N)=O` (HELM PEPTIDE1{[ac].H.K.[CC(=S)NCCCC[C@H](N[*:1])C(=O)[*:2]].K.M.[am]}|PEPTIDE2{[ac]}|PEPTIDE3{[ac]}$PEPTIDE1,PEPTIDE2,3:R3-1:R2|PEPTIDE1,PEPTIDE3,5:R3-1:R2$$$V2.0): the concentration for half-maximal inhibition (IC50) in data set [1] was found to be 2 µM.
Consider `CC(=O)NCCCC[C@H](NC(=O)[C@H](CCCCNC(C)=S)NC(=O)[C@H](CCCCNC(C)=O)NC(C)=O)C(N)=O`, for which the Activity in data set [4] and in [11] was 19% each time. Also, the result in data set [5], in data set [7], in [8] and in [9] was inactive. Besides, the IC50 in data set [6] was 2.4 µM; in data set [1], 2.1 µM; in data set [13], 4.5 µM. Also, the inhibition entry in data set [14] was “Dose-dependent effect”. Moreover, the inhibition result in data set [15] was “Active”. In [10], the Stability entry is listed as “Stable”. In [16], the Ratio came out at 23.
